# Data from patent US20250276008A1, “USE OF LITHIUM-CONTAINING COMPOUNDS IN TREATMENT OF TUMORS” (Institute of Basic Medical Sciences Chinese Academy of …, priority 2023, published 2025).
# Assays:
# MCT1 = assay: Localization of MCT1 to mitochondria (Western blot of isolated T cell mitochondria); format: cell-based, mouse; details: for expression / localization of MCT1 in mitochondria: Western blot of isolated T cell mitochondria
# Text: The inventor further explored the molecular mechanism by which LC led to the shunting of lactic acid to mitochondria. Entry of lactic acid into mitochondria requires the localization of MCT1 to the inner mitochondrial membrane IMM (Redox Biol. 2020 August;35:101454). […] MCT1 is generally recognized as a secreted protein with an endoplasmic reticulum-targeting sequence that enters the endoplasmic reticulum and localizes to the plasma membrane. We hypothesized that LC could induce MCT1 variants with mitochondrial targeting sequences (MTSs). However, no MCT1 variant was found in LC-treated T cells by sequencing analysis, and only one transcript of MCT1 was found after alignment analysis on NCBI. A MTS was found at the N-terminus of MCT-1protein by protein sequence analysis, which was present downstream of the endoplasmic reticulum targeting sequence, forming a double-peak chimeric sequence. This double-peak sequence may direct MCT-1 to target the endoplasmic reticulum or mitochondria, and may be regulated by serine/threonine phosphorylation of PKA or PKC (Avadhani, N. G. 2011. FEBS J 278, 4218-4229).
# CD8^+ T cells [1] = assay: Lactyl-CoA (LC-MS/MS) and histone lactylation (Western blot, anti-pan-Kla) in CD8+ T cells; format: cell-based, mouse; details: after treating CD8+ T cells with exogenous lactic acid
# Text: We further investigated the effect of lactic acid distributed in the nucleus on the function of CD8^+ T cells. In 2019, Zhao […] team discovered a new type of histone epigenetic modification, lactylation modification (Kla), which can regulate the phenotype and function of macrophages (Nature. 2019 October: 574 (7779): 575-580). On this basis, we hypothesized that lactic acid entering the nucleus would lead to lactylation modification of histones, thereby regulating the function of CD8^+ T cells.
# lysosomal V-ATPase = assay: Lysosomal pH, Atp6v0c, H+ (deuterium) flow and Li+ accumulation in CD8+ T cells; format: cell-based, mouse
# Procedure: (§1) In order to better track the flow of H^+, ^2D (deuterium)-acetic acid (DAC) or ^2D-sulfuric acid (D2SO4) was added to the culture medium of CD8^+ T cells. […] The K-loop of V-ATPase is located in the hydrophobic lipid bilayer and is essential for the pumping of cytosolic H^+ into the lysosomal lumen. Li^+ has been reported to bind to the K-loop of V-ATPase in Enterococcus hirde and induce deprotonation of the Glul39 residue (J. Am. Chem. Soc. 2011.133. 2860-2863).
# CD8^+ T cells [2] = assay: Entry and subcellular distribution of lactate and hydrogen ions in CD8+ T cells (lysosensor, LC-MS/MS); format: cell-based, mouse
# Procedure: CD8^+ T cells were treated with exogenous hydrochloric acid (HCl) or sodium lactate (NaLa) as controls, and the entry of lactate and hydrogen ions into the cells was detected.
# When exogenous lactic acid enters the cell, excess hydrogen ions are further transported to acidic organelles, such as lysosomes, in order to maintain the stability of the cytoplasmic pH values.
# CD8^+ T cells [3] = assay: Exogenous lactic acid on CD3/CD28-activated CD8+ T cells (flow cytometry, qPCR, ELISA, CTV); format: cell-based, C57BL/6J mouse; details: exogenous lactic acid at different concentrations, dose-dependent
# Text: In order to further explore the effect of lactic acid on CD8^+ T cells, we used C57BL/6J mouse spleen-derived CD8^+ T cells to be activated by CD3/CD28 magnetic beads and stimulated by exogenous lactic acid at different concentrations.
# V-ATPase = assay: V0C expression, V-ATPase activity and lysosomal pH in lactic acid-treated CD8+ T cells; format: cell-based, mouse
# Procedure: In order to further elucidate the mechanism by which histone lactylation modification regulates T cell function, the downstream target genes regulated by histone lactylation modification were explored by using ChIP-Seq experiments, and the enrichment scores of genes corresponding to histone lactylation sites were calculated. […] ATP6V0C gene encodes the V0 subunit C protein in V-ATPase that plays a key role in pumping H^+, which is responsible for pumping cytosolic H^+ into the lysosomal lumen and thus maintaining the low pH value of lysosomes. […] Therefore, exogenous lactic acid results in lactylation of histones and thus up-regulating ATP6V0C expression and activity, thereby shunting cytosolic H^+ into lysosomes in response to cytosolic acid stress, but lysosomal acidification may inhibit the activity of CD8^+ T cells.
# CD8^+ T cells [4] = assay: Cytosolic Ca2+ / lysosomal Ca2+ release in CD8+ T cells; format: cell-based, mouse; details: for Ca^2+ release in lactic acid-treated CD8^+ T cells: increasing lysosomal pH value; for increase in cytosolic Ca^2+ concentrations in CD8^+ T cells induced by LC: blocking calcium release from endoplasmic reticulum or mitochondria
# Text: Next, we investigated the molecular mechanism by which LC activated TFEB in CD8^+ T cells. It has been reported (Nat Cell Biol. 2015 March;17(3):288-99) that in addition to being able to degrade exogenous or endogenous biomacromolecules, lysosomes, like endoplasmic reticulum and mitochondria, are also storage sites for Ca^2+ and can initiate the transduction of calcium-related downstream signals.
# as §1
compound,measurement,setting,value
CN1CCN(c2nc(C3=C(c4c[nH]c5ccccc45)C(=O)NC3=O)c3ccccc3n2)CC1 [Sotrastaurin],localization of MCT1 to mitochondria induced by LC,"MCT1; kinase inhibitors added, results not shown",almost completely blocked
CC(O)C(=O)O (stereo not drawn) [lactic acid],expression / localization of MCT1 in mitochondria,MCT1,significantly reduced
same,content of lactyl-CoA (LC-MS/MS),CD8^+ T cells [1],significantly increased
same,"level of histone lactylation (Western blotting, anti-pan-Kla antibody)",CD8^+ T cells [1],significantly increased
same,expression of lysosome-related gene Atp6v0c,lysosomal V-ATPase,significantly up-regulated
same,lactylation of the Atp6v0c gene (ChIP-seq),lysosomal V-ATPase,high level of lactylation
same,lysosome acidification (lysosensor staining),CD8^+ T cells [2],rapidly acidify lysosomes
same,entry of lactate and hydrogen ions into the cells,CD8^+ T cells [2]; HCl or sodium lactate as controls,simultaneously transported into the cells
same,"activation of CD8^+ T cells (CD25 expression; gene and protein expression of IL-2, IFN-γ, TNF-α)",CD8^+ T cells [3]; CD3/CD28 magnetic beads,significantly inhibited
same,apoptosis of CD8^+ T cells,CD8^+ T cells [3],significantly promoted
same,proliferation of CD8^+ T cells (CTV proliferation assay),CD8^+ T cells [3],significantly inhibited
same,activity of V-ATPase,V-ATPase; CD8+ T cells,significantly up-regulated
same,protein expression of V0C,V-ATPase; CD8+ T cells,significantly up-regulated
same,lysosomal pH value,"V-ATPase; exogenous lactic acid, decreasing from 5.4",4.4
CCN(CC)CCCC(C)Nc1ccnc2cc(Cl)ccc12 (stereo not drawn) [chloroquine],Ca^2+ release in lactic acid-treated CD8^+ T cells,CD8^+ T cells [4],promote
CO/C1=C\C(C)=C\[C@@H](C)[C@@H](O)[C@@H](C)C/C(C)=C/C=C/[C@H](OC)[C@@H]([C@@H](C)[C@@H](O)[C@H](C)[C@@]2(O)C[C@@H](O)[C@H](C)[C@@H](C(C)C)O2)OC1=O [bafilomycin A1],entry of Li^+ into lysosomes,lysosomal V-ATPase; LC-treated CD8+ T cells,blocked
same,Ca^2+ release,CD8^+ T cells [4]; LC-treated CD8+ T cells with bafilomycin A1,reduced
same,Ca^2+ release in lactic acid-treated CD8^+ T cells,CD8^+ T cells [4],promote
O=C1CSC(c2ccccc2Cl)c2cc(Cl)ccc2N1 (stereo not drawn) [CGP37157],increase in cytosolic Ca^2+ concentrations in CD8^+ T cells induced by LC,CD8^+ T cells [4],did not affect
Ryanodine,increase in cytosolic Ca^2+ concentrations in CD8^+ T cells induced by LC,CD8^+ T cells [4],did not affect
CCCCCCCCCCCCCC(=O)O[C@@H]1[C@@H](C)[C@@]2(O)[C@@H](C=C(CO)C[C@]3(O)C(=O)C(C)=C[C@@H]23)[C@@H]2C(C)(C)[C@]12OC(C)=O [PMA],expression / localization of MCT1 in mitochondria,MCT1,significantly increased
